Measurements published in patent publication US8697747B2, “Enhancing coagulation or reducing fibrinolysis” (THe UAB Research Foundation, priority 2009, dated 2014).

Tested on: pooled normal plasma
Assay: Clot lifespan model (CLSM) thrombelastography with tPA, normal plasma
Assay type: biochemical, human
Details: 100 μM
Protocol: Pooled normal plasma (George King Bio-Medical, Overland Park, Kans.) anticoagulated with sodium citrate was utilized for experimentation. […] Factor XIII (FXIII) deficient plasma anticoagulated with sodium citrate was also obtained from the same vendor.
Plasma Sample Composition. The final volume for all subsequently described plasma sample mixtures was 359.4 μL. Sample composition consisted of 316 μL of plasma; 10 μL of tissue factor (0.1% final concentration in 0.9% NaCl; Diagnostica Stago, Asnieres, France), 3.6 μL of dimethyl sulfoxide (DMSO) or DMSO with CORM-2 (Sigma-Aldrich, St. Louis, Mo.) or DMSO with inactivated CORM-2 (iCORM-2), 10 μL of tissue-type plasminogen activator (tPA, 580 U/μg, Genentech, Inc., San Francisco, Calif.) diluted with 10 mM potassium phosphate buffer (pH 7.4) for a final activity of 100 IU/mL, and 20 μL of 200 mM CaCl2. […] This concentration of CORM-2 was chosen because the concentration of CO released would be expected to be in the mid to lower ranges used in previously reported ex vivo, in vitro, and cell-based experiments (Motterlini et al. 2002; Megias et al. 2007; Chlopicki et al. 2006; Dong et al. 2008). […] (Motterlini et al. 2005). While CORM-2 decays slowly in DMSO, DMSO was added to the dry compound just prior to placement into the plasma mixture. The specific series of experiments are subsequently presented.
Concentration-Response Relationships of CORM-2 and iCORM-2 with Clot Lifespan Model (CLSM) Parameters. Normal plasma was exposed to 0, 25, 50, 100 or 200 μM CORM-2 (n=4 per concentration. Additional plasma samples were exposed to 25, 50 or 100 μM iCORM-2 (n=4 per concentration). Samples underwent CLSM analyses as subsequently described.
Comparison of the Effects of CORM-2 and iCORM-2 on CLSM Parameters in Normal Plasma. Given the results of the aforementioned experiments, additional samples of normal plasma were exposed to 0 or 100 μM of CORM-2 or iCORM-2 (n=4 per additional sample condition, n=8 per condition for final analyses). Samples underwent CLSM analyses as subsequently described.
Clot Lifespan Model Analyses. As described in Example 1, plasma sample mixtures were placed in a disposable cup in a computer-controlled THROMBELASTOGRAPH® hemostasis system (Model 5000, Haemoscope Corp., Niles, Ill.), with addition of CaCl2 as the last step to initiate clotting. Data were collected until clot lysis time occurred. […] As this model involves complete fibrinolysis, TTG is equivalent to ACL, so ACL was not presented as it provides no additional information.
Statistical Analyses. Data are presented as median (1st, 3rd quartiles). […] Nonlinear and linear analyses and curve fitting of the various CORM-2 concentrations effects on CLSM variables were performed with commercially available software (SigmaPlot 11.0, Systat Software, Inc., San Jose, Calif.). Analyses of the effects of CORM-2 and iCORM-2 on CLSM variables in normal plasma were conducted with Kruskal-Wallis one way analysis of variance on ranks, whereas Mann-Whitney rank sum tests were used to assess the effects of CORM-2 on CLSM variables in the various immunodepleted/congenitally deficient plasma types (SigmaStat 3.1, Systat Software, Inc., San Jose, Calif.). Graphical representation of the data was generated with commercially available software (SigmaPlot 11.0, Systat Software, Inc., San Jose, Calif.; CorelDRAW 12.0, Corel Corporation, Ottawa, Ontario, Canada; Origin 7.5, OriginLab Corp., Northampton, Mass.). A P value of <0.05 was considered significant.

[C-]#[O+].[C-]#[O+].[C-]#[O+].[C-]#[O+].[C-]#[O+].[C-]#[O+].[Cl][Ru][Cl].[Cl][Ru][Cl] [CORM-2, tricarbonyldichlororuthenium (II) dimer]
delay of the onset of fibrinolysis vs samples not exposed (tPA): 258% | enhancement of strength of the clot vs samples not exposed (tPA): 113% | enhancement of the velocity of growth vs samples not exposed (tPA): 120% | increase in CGT vs 0 μM CORM-2 (tPA): 126% | increase in CLS vs 0 μM CORM-2 (tPA): 145% | increase in CLT vs 0 μM CORM-2 (tPA): 143% | CGT (clot growth time) (tPA 100 IU/mL, median, n=8): 508 s | CLS (clot lifespan) (tPA 100 IU/mL, median, n=8): 2325 s | CLT (clot lysis time) (tPA 100 IU/mL, median, n=8): 1768 s | MRL (maximum rate of lysis) (tPA 100 IU/mL, median, n=8): −1.9 -dynes/cm^2/sec | MRTG (maximum rate of thrombus generation) (tPA 100 IU/mL, median, n=8): 9.7 dynes/cm^2/sec | TMRL (time to maximum rate of lysis) (tPA 100 IU/mL, median, n=8): 1218 s | TMRTG (time to maximum rate of thrombus generation) (tPA 100 IU/mL, median, n=8): 155 s | TTG (total thrombus generation) (tPA 100 IU/mL, median, n=8): 281 dynes/cm^2
